Here are results for two molecules from patent US20100028420A1, “CONTROLLED RELEASE COMPOSITION AND PROCESS” (3M Innovative Properties Company, priority 2006, published 2010).

Read-outs that look alike come from different tables or passages of the source.

In general, pKa refers to the negative logarithm of the acid dissociation constant.

The data set can be described thus: Titration of dispersed solid with sodium hydroxide (pKa from titration curve). Type of data set: physicochemical. Conditions: for pKa: dispersion of the solid in deionized water. Here is the method: The Comparative Compound (1.0 g) was dispersed in deionized water (199 mL) using a shear mixer/emulsifier (Silverson Model L4R, Silverson Machines, Ltd., Waterside, Chesham, Bucks, England) for approximately 5 minutes. Cresol red indicator (0.04 weight percent in water; 4 drops) was added to aid in end point detection. Samples were titrated (using a 50 mL buret with 0.1 mL graduation) with rapid stirring to maintain suspension of dispersed solid in the liquid medium (0.1 N analytical standard grade sodium hydroxide from Mallinckrodt Baker, Phillipsburg, N.J.) over a period of 1-3 hours. The dispersion became clear after 2 equivalents of base had been added, indicating conversion of the Comparative Compound to a compound corresponding to the righthand structure above. […] At higher concentrations, a liquid crystalline phase potentially useful for encapsulation of guest molecules is formed between a pH of about 7 and a pH of about 8. This phase forms at a steep end point transition of the titration curve, where even a small addition of base caused a significant change in pH (indicating a need for careful monitoring and control of the amount of base addition for use of the Comparative Compound in, for example, the encapsulation of pH-sensitive guest molecules).
Folic acid (1.0 g) was dispersed in deionized water (199 mL) using a Silverson L4R shear mixer/emulsifier for approximately 5 minutes. Cresol red indicator (0.04 weight percent in water; 4 drops) was added to aid in end point detection. Samples were titrated (using a 50 mL buret with 0.1 mL graduation) with rapid stirring to maintain suspension of dispersed solid in the liquid medium during the addition of base (0.1 N analytical standard grade sodium hydroxide from Mallinckrodt Baker, Phillipsburg, N.J.). The dispersion became clear after 2 equivalents of base had been added.
Folic acid (2.0 g) was dispersed in deionized water (198 mL) using a Silverson L4R shear mixer/emulsifier for approximately 5 minutes. Cresol red indicator (0.04 weight percent in water; 4 drops) was added to aid in end point detection. Samples were titrated (using a 50 mL buret with 0.1 mL graduation) with rapid stirring to maintain suspension of dispersed solid in the liquid medium during the addition of base (0.2 N analytical standard grade sodium hydroxide from Mallinckrodt Baker, Phillipsburg, N.J.). The dispersion became clear after 2 equivalents of base had been added.

Where [1] appears, read: 0.5 weight percent dispersion in deionized water, 0.1 N NaOH.

Take `Nc1nc(=O)c2nc(CNc3ccc(C(=O)N[C@@H](CCC(=O)O)C(=O)O)cc3)cnc2[nH]1` [Folic acid]: the pKa is ~5.8 (0.5 weight percent dispersion in deionized water, 0.1 N NaOH, read-out: first pKa); ~5.8 (0.5 weight percent dispersion in deionized water, 0.1 N NaOH, read-out: second pKa); ~6.1 (1 weight percent dispersion in deionized water, 0.2 N NaOH, read-out: first pKa); ~6.1 (1 weight percent dispersion in deionized water, 0.2 N NaOH, read-out: second pKa).
Take `Cn1cc[n+](-c2nc(Nc3ccc(C(=O)O)cc3)nc(Nc3ccc(C(=O)O)cc3)n2)c1.[Cl-]` [Comparative Compound]: under setting [1], the “first pKa” value is “about 3.2” and the “second pKa” value is listed as “about 5.8”.
